Assay results published in PubChem BioAssay AID1259407 (Chemical Carcinogenesis Research Information System (CCRIS), 2018).
Calls of active or inactive are those of the source. How the calls were made is not given here.

Test system: CCRIS mutagenicity, Ames/micronucleus/aberration tests
Experiment: CCRIS mutagenicity studies
[1] = Test System: AMES SALMONELLA TYPHIMURIUM, Strain/Indicator: TA98, Metabolic Activation: NONE, Method: STANDARD PLATE
[2] = Test System: AMES SALMONELLA TYPHIMURIUM, Strain/Indicator: TA100, Metabolic Activation: NONE, Method: STANDARD PLATE
[3] = Test System: AMES SALMONELLA TYPHIMURIUM, Strain/Indicator: TA1537, Metabolic Activation: NONE, Method: STANDARD PLATE
[4] = Test System: AMES SALMONELLA TYPHIMURIUM, Strain/Indicator: TA1538, Metabolic Activation: NONE, Method: STANDARD PLATE
[5] = Test System: AMES SALMONELLA TYPHIMURIUM, Strain/Indicator: TA98, Metabolic Activation: RAT, LIVER, S-9, AROCLOR 1254, Method: STANDARD PLATE
[6] = Test System: AMES SALMONELLA TYPHIMURIUM, Strain/Indicator: TA100, Metabolic Activation: RAT, LIVER, S-9, AROCLOR 1254, Method: STANDARD PLATE
[7] = Test System: AMES SALMONELLA TYPHIMURIUM, Strain/Indicator: TA1535, Metabolic Activation: NONE, Method: STANDARD PLATE
[8] = Test System: AMES SALMONELLA TYPHIMURIUM, Strain/Indicator: TA1535, Metabolic Activation: RAT, LIVER, S-9, AROCLOR 1254, Method: STANDARD PLATE
[9] = Test System: AMES SALMONELLA TYPHIMURIUM, Strain/Indicator: TA1537, Metabolic Activation: RAT, LIVER, S-9, AROCLOR 1254, Method: STANDARD PLATE
[10] = Test System: AMES SALMONELLA TYPHIMURIUM, Strain/Indicator: TA98, Metabolic Activation: NONE, Method: PREINCUBATION
[11] = Test System: AMES SALMONELLA TYPHIMURIUM, Strain/Indicator: TA100, Metabolic Activation: NONE, Method: PREINCUBATION

In the case of Nc1cc2c(cc1[N+](=O)[O-])[nH]c1ccccc12, the mutagenic call [1] is reported as “active; positive”, the mutagenic call (Test System: AMES SALMONELLA TYPHIMURIUM, Strain/Indicator: TA98, Metabolic Activation: RAT, LIVER, S-9, PHENOBARBITAL, Method: STANDARD PLATE) is reported as “active; positive” and the mutagenic call [2] is reported as “active; positive”. The mutagenic call (Test System: AMES SALMONELLA TYPHIMURIUM, Strain/Indicator: TA100, Metabolic Activation: RAT, LIVER, S-9, PHENOBARBITAL, Method: STANDARD PLATE) was “active; positive”, the mutagenic call [3] was “active; positive” and the mutagenic call (Test System: AMES SALMONELLA TYPHIMURIUM, Strain/Indicator: TA1537, Metabolic Activation: RAT, LIVER, S-9, PHENOBARBITAL, Method: STANDARD PLATE) was “active; positive”. The mutagenic call [4] was “active; positive”, the mutagenic call (Test System: AMES SALMONELLA TYPHIMURIUM, Strain/Indicator: TA1538, Metabolic Activation: RAT, LIVER, S-9, PHENOBARBITAL, Method: STANDARD PLATE) was “active; positive” and the mutagenic call (Test System: AMES SALMONELLA TYPHIMURIUM, Strain/Indicator: TA1977, Metabolic Activation: NONE, Method: STANDARD PLATE) was “active; positive”. The mutagenic call (Test System: AMES SALMONELLA TYPHIMURIUM, Strain/Indicator: TA1977, Metabolic Activation: RAT, LIVER, S-9, PHENOBARBITAL, Method: STANDARD PLATE) was “active; positive”.
For CS(=O)(=O)c1ccc(Cl)cc1, the mutagenic call [1] was “inactive; negative”, the mutagenic call [5] was “inactive; negative” and the mutagenic call [2] was “inactive; negative”. For the same compound, the mutagenic call [6] was “inactive; negative”, the mutagenic call [7] was “inactive; negative” and the mutagenic call [8] was “inactive; negative”. The mutagenic call [3] was “inactive; negative”, the mutagenic call [9] was “inactive; negative” and the mutagenic call [4] was “inactive; negative”. The mutagenic call (Test System: AMES SALMONELLA TYPHIMURIUM, Strain/Indicator: TA1538, Metabolic Activation: RAT, LIVER, S-9, AROCLOR 1254, Method: STANDARD PLATE) was “inactive; negative”.
With O=C(c1ccc(-c2ccccc2)cc1)C1OC1c1ccccc1 (stereo not drawn) the mutagenic call [1] was “inactive; negative”, the mutagenic call [5] was “inactive; negative” and the mutagenic call [2] was “inactive; negative”. The mutagenic call [6] was “inactive; negative”.
For CCO[Si](OCC)(OCC)OCC, the mutagenic call (Test System: AMES SALMONELLA TYPHIMURIUM, Strain/Indicator: TA98, Metabolic Activation: HAMSTER, LIVER, S-9, AROCLOR 1254, Method: STANDARD PLATE) was “inactive; negative”, the mutagenic call [1] was “inactive; negative” and the mutagenic call [5] was “inactive; negative”. For the same compound, the mutagenic call (Test System: AMES SALMONELLA TYPHIMURIUM, Strain/Indicator: TA100, Metabolic Activation: HAMSTER, LIVER, S-9, AROCLOR 1254, Method: STANDARD PLATE) was “inactive; negative”, the mutagenic call [2] was “inactive; negative” and the mutagenic call [6] was “inactive; negative”. The mutagenic call (Test System: AMES SALMONELLA TYPHIMURIUM, Strain/Indicator: TA102, Metabolic Activation: HAMSTER, LIVER, S-9, AROCLOR 1254, Method: STANDARD PLATE) was “inactive; negative”, the mutagenic call (Test System: AMES SALMONELLA TYPHIMURIUM, Strain/Indicator: TA102, Metabolic Activation: NONE, Method: STANDARD PLATE) was “inactive; negative” and the mutagenic call (Test System: AMES SALMONELLA TYPHIMURIUM, Strain/Indicator: TA102, Metabolic Activation: RAT, LIVER, S-9, AROCLOR 1254, Method: STANDARD PLATE) was “inactive; negative”. The mutagenic call (Test System: AMES SALMONELLA TYPHIMURIUM, Strain/Indicator: TA1535, Metabolic Activation: HAMSTER, LIVER, S-9, AROCLOR 1254, Method: STANDARD PLATE) was “inactive; negative”, the mutagenic call [7] was “inactive; negative” and the mutagenic call [8] was “inactive; negative”. For the same compound, the mutagenic call (Test System: AMES SALMONELLA TYPHIMURIUM, Strain/Indicator: TA1537, Metabolic Activation: HAMSTER, LIVER, S-9, AROCLOR 1254, Method: STANDARD PLATE) was “inactive; negative”, the mutagenic call [3] was “inactive; negative” and the mutagenic call [9] was “inactive; negative”. The mutagenic call (Test System: MOUSE LYMPHOMA, Strain/Indicator: L5178Y (TK+/TK-), Metabolic Activation: NONE, Method: SUSPENSION/PLATE) was “inactive; negative. reevaluation of results: negative” and the mutagenic call (Test System: Mouse lymphoma, Strain/Indicator: L5178 Y (tk+/tk-), Metabolic Activation: Rat, Liver, S-9, Aroclor 1254, Method: Suspension/plate) was “inactive; negative”.
For C1CCC2OCCOCCOCCOC3CCCCC3OCCOCCOCCOC2C1 (stereo not drawn), the mutagenic call [1] was “inactive; negative”, the mutagenic call [5] was “inactive; negative” and the mutagenic call [2] was “inactive; negative”. For the same compound, the mutagenic call [6] was “inactive; negative”, the mutagenic call (Test System: AMES SALMONELLA TYPHIMURIUM, Strain/Indicator: TA1530, Metabolic Activation: NONE, Method: STANDARD PLATE) was “inactive; negative” and the mutagenic call (Test System: AMES SALMONELLA TYPHIMURIUM, Strain/Indicator: TA1530, Metabolic Activation: RAT, LIVER, S-9, AROCLOR 1254, Method: STANDARD PLATE) was “inactive; negative”. For the same compound, the mutagenic call [3] was “inactive; negative” and the mutagenic call [9] was “inactive; negative”.
In the case of NC(=O)NNC(N)=O, the mutagenic call (Test System: AMES SALMONELLA TYPHIMURIUM, Strain/Indicator: TA97, Metabolic Activation: HAMSTER, LIVER, S-9, AROCLOR 1254 (10 OR 30%), Method: PREINCUBATION) is reported as “inactive; negative”, the mutagenic call (Test System: AMES SALMONELLA TYPHIMURIUM, Strain/Indicator: TA97, Metabolic Activation: NONE, Method: PREINCUBATION) is reported as “inactive; negative” and the mutagenic call (Test System: AMES SALMONELLA TYPHIMURIUM, Strain/Indicator: TA97, Metabolic Activation: RAT, LIVER, S-9, AROCLOR 1254 (10 OR 30%), Method: PREINCUBATION) is reported as “inactive; negative”. The mutagenic call (Test System: AMES SALMONELLA TYPHIMURIUM, Strain/Indicator: TA98, Metabolic Activation: HAMSTER, LIVER, S-9, AROCLOR 1254 (10 OR 30%), Method: PREINCUBATION) was “inactive; negative”, the mutagenic call [10] was “inactive; negative” and the mutagenic call (Test System: AMES SALMONELLA TYPHIMURIUM, Strain/Indicator: TA98, Metabolic Activation: RAT, LIVER, S-9, AROCLOR 1254 (10 OR 30%), Method: PREINCUBATION) was “inactive; negative”. For the same compound, the mutagenic call (Test System: AMES SALMONELLA TYPHIMURIUM, Strain/Indicator: TA100, Metabolic Activation: HAMSTER, LIVER, S-9, AROCLOR 1254 (10 OR 30%), Method: PREINCUBATION) was “inactive; negative”, the mutagenic call [11] was “inactive; negative” and the mutagenic call (Test System: AMES SALMONELLA TYPHIMURIUM, Strain/Indicator: TA100, Metabolic Activation: RAT, LIVER, S-9, AROCLOR 1254 (10 OR 30%), Method: PREINCUBATION) was “inactive; negative”. For the same compound, the mutagenic call (Test System: AMES SALMONELLA TYPHIMURIUM, Strain/Indicator: TA1535, Metabolic Activation: HAMSTER, LIVER, S-9, AROCLOR 1254 (10 OR 30%), Method: PREINCUBATION) was “inactive; negative”, the mutagenic call (Test System: AMES SALMONELLA TYPHIMURIUM, Strain/Indicator: TA1535, Metabolic Activation: NONE, Method: PREINCUBATION) was “inactive; negative” and the mutagenic call (Test System: AMES SALMONELLA TYPHIMURIUM, Strain/Indicator: TA1535, Metabolic Activation: RAT, LIVER, S-9, AROCLOR 1254 (10 OR 30%), Method: PREINCUBATION) was “inactive; negative”. The mutagenic call (Test System: AMES SALMONELLA TYPHIMURIUM, Strain/Indicator: TA1537, Metabolic Activation: HAMSTER, LIVER, S-9, AROCLOR 1254 (10 OR 30%), Method: PREINCUBATION) was “inactive; negative”, the mutagenic call (Test System: AMES SALMONELLA TYPHIMURIUM, Strain/Indicator: TA1537, Metabolic Activation: NONE, Method: PREINCUBATION) was “inactive; negative” and the mutagenic call (Test System: AMES SALMONELLA TYPHIMURIUM, Strain/Indicator: TA1537, Metabolic Activation: RAT, LIVER, S-9, AROCLOR 1254 (10 OR 30%), Method: PREINCUBATION) was “inactive; negative”.
With O=C(O)C(Cl)=C(C(Cl)Cl)C(Cl)Cl the mutagenic call [10] was “active; positive”, the mutagenic call [11] was “active; positive” and the mutagenic call [2] was “active; positive”. The mutagenic call (Test System: AMES SALMONELLA TYPHIMURIUM, Strain/Indicator: TA104, Metabolic Activation: NONE, Method: PREINCUBATION) was “active; positive”.
